These results are taken from US20250101436A1, “APTAMERS AND SMALL MOLECULE LIGANDS” (MeiraGTx UK II Limited, priority 2021, published 2025).

The first test deals with N5-12G6 riboswitch. As to the kind of experiment: Firefly luciferase assay, N5-12G6 riboswitch in HEK293 cells. The conditions noted are these: 12G6 riboswitch, HEK293.
`CC1CNCCN1c1ccncc1NCc1ccc2nccnc2c1` (stereo not drawn) [compound 015, 4-(2-Methylpiperazin-1-yl)-N-(quinoxalin-6-ylmethyl)pyridin-3-amine]: the “regulation of luciferase expression (FIG. 4e)” value is recorded as “regulate expression in a dose-dependent fashion”.
Still for that read-out and setting: the same measure for `CC1CN(c2ccncc2NCc2ccc3nccnc3c2)CCN1` (stereo not drawn) [compound 016, 4-(3-Methylpiperazin-1-yl)-N-(quinoxalin-6-ylmethyl)pyridin-3-amine]: “regulate expression in a dose-dependent fashion”; for `c1cc(OC2CCNC2)c(NCc2ccc3nccnc3c2)cn1` (stereo not drawn) [compound 018, 4-(Pyrrolidin-3-yloxy)-N-(quinoxalin-6-ylmethyl)pyridin-3-amine]: “regulate expression in a dose-dependent fashion”; for `Clc1cncc(NCc2ccc3nccnc3c2)c1N1CCNCC1` [compound 019, 5-Chloro-4-(piperazin-1-yl)-N-(quinoxalin-6-ylmethyl)pyridin-3-amine]: “regulate expression in a dose-dependent fashion”.

Staying with this test, now noted: Homo sapiens, HEK293, read-out: Fold induction 2 μM (HEK), 12G6 riboswitch, luciferase, HEK293, 2 μM.
For `Clc1cncc(NCc2ccc3nccnc3c2)c1N1CCNCC1` [compound 019, 5-Chloro-4-(piperazin-1-yl)-N-(quinoxalin-6-ylmethyl)pyridin-3-amine], the fold induction at 2 µM came out at 60.2.
Same read-out and setting: the same measure for `C[C@@H]1CNCCN1c1ccncc1NCc1ccc2nccnc2c1` [compound 020, (R)-4-(2-Methylpiperazin-1-yl)-N-(quinoxalin-6-ylmethyl)pyridin-3-amine]: 31.2; for `c1cc(O[C@@H]2CCNC2)c(NCc2ccc3nccnc3c2)cn1` [compound 021, (R)-4-(pyrrolidin-3-yloxy)-N-(quinoxalin-6-ylmethyl)pyridin-3-amine]: 68.4.
The same measure, in the same setting: the same measure for `c1cc(OC2CNC2)c(NCc2ccc3nccnc3c2)cn1` [compound 022, 4-(Azetidin-3-yloxy)-N-(quinoxalin-6-ylmethyl)pyridin-3-amine]: 43.2.
The same measure, in the same setting: the same measure for `Cc1cncc(NCc2ccc3nccnc3c2)c1N1CCNCC1` [compound 023, 5-Methyl-4-(piperazin-1-yl)-N-(quinoxalin-6-ylmethyl)pyridin-3-amine]: 67.4.
Turning to `Fc1cc(N2CCNCC2)c(NCc2ccc3nccnc3c2)cn1` [compound 024, 6-Fluoro-4-(piperazin-1-yl)-N-(quinoxalin-6-ylmethyl)pyridin-3-amine], the fold induction at 2 µM came to 35.1.
For the compound `C[C@H]1CN(c2c(Cl)cncc2NCc2ccc3nccnc3c2)CCN1` [compound 025, (S)-5-Chloro-4-(3-methylpiperazin-1-yl)-N-(quinoxalin-6-ylmethyl)pyridin-3-amine], the fold induction at 2 µM was determined as 42.6.
The same measure, in the same setting: the result for `C[C@@H]1CNCCN1c1c(Cl)cncc1NCc1ccc2nccnc2c1` [compound 026, (R)-5-Chloro-4-(2-methylpiperazin-1-yl)-N-(quinoxalin-6-ylmethyl)pyridin-3-amine] reads 27.2; that for `Clc1cncc(NCc2ccc3nccnc3c2)c1OC1CNC1` [compound 027, 4-(Azetidin-3-yloxy)-5-chloro-N-(quinoxalin-6-ylmethyl)pyridin-3-amine], 49.4.
As to `Fc1cc(CNc2cnccc2OC2CNC2)cc2nccnc12` [compound 028, 4-(Azetidin-3-yloxy)-N-((8-fluoroquinoxalin-6-yl)methyl)pyridin-3-amine], the fold induction at 2 µM turned out to be 33.
For `Clc1cc2nccnc2cc1CNc1cnccc1OC1CNC1` [compound 029, 4-(Azetidin-3-yloxy)-N-((7-chloroquinoxalin-6-yl)methyl)pyridin-3-amine], the fold induction at 2 µM came out at 41.3.

Still in this test, the particulars now being: Homo sapiens, HEK293, read-out: Fold induction 3.3 μM (HEK), 12G6 riboswitch, luciferase, HEK293, 3.3 μM.
For `C[C@@H]1CNCCN1c1ccncc1NCc1ccc2nccnc2c1` [compound 020, (R)-4-(2-Methylpiperazin-1-yl)-N-(quinoxalin-6-ylmethyl)pyridin-3-amine], the fold induction at 3.3 µM came to 52.
On the same count and under the same terms, the result for `c1cc(O[C@@H]2CCNC2)c(NCc2ccc3nccnc3c2)cn1` [compound 021, (R)-4-(pyrrolidin-3-yloxy)-N-(quinoxalin-6-ylmethyl)pyridin-3-amine] reads 62; that for `C[C@H]1CNCCN1c1ccncc1NCc1ccc2nccnc2c1` [compound 041, (S)-4-(2-methylpiperazin-1-yl)-N-(quinoxalin-6-ylmethyl)pyridin-3-amine], 5; that for `C[C@H]1CN(c2ccncc2NCc2ccc3nccnc3c2)CCN1` [compound 042, (S)-4-(3-methylpiperazin-1-yl)-N-(quinoxalin-6-ylmethyl)pyridin-3-amine], 29.
Same read-out and setting: the same measure for `C[C@@H]1CN(c2ccncc2NCc2ccc3nccnc3c2)CCN1` [compound 043, (R)-4-(3-methylpiperazin-1-yl)-N-(quinoxalin-6-ylmethyl)pyridin-3-amine]: 31.

Still in this test, the particulars now being: Homo sapiens, HEK293, read-out: Fold induction 25 μM (HEK), 12G6 riboswitch, luciferase, HEK293, 25 μM.
Turning to `CC1CNCCN1c1ccncc1NCc1ccc2nccnc2c1` (stereo not drawn) [compound 015, 4-(2-Methylpiperazin-1-yl)-N-(quinoxalin-6-ylmethyl)pyridin-3-amine], the fold induction at 25 µM turned out to be 329.
As to `CC1CN(c2ccncc2NCc2ccc3nccnc3c2)CCN1` (stereo not drawn) [compound 016, 4-(3-Methylpiperazin-1-yl)-N-(quinoxalin-6-ylmethyl)pyridin-3-amine], the fold induction at 25 µM came out at 287.
Still for that read-out and setting: the same measure for `c1cc(C2CCNCC2)c(NCc2ccc3nccnc3c2)cn1` [compound 017, 4-(Piperidin-4-yl)-N-(quinoxalin-6-ylmethyl)pyridin-3-amine]: 130; for `c1cc(OC2CCNC2)c(NCc2ccc3nccnc3c2)cn1` (stereo not drawn) [compound 018, 4-(Pyrrolidin-3-yloxy)-N-(quinoxalin-6-ylmethyl)pyridin-3-amine]: 286; for `Clc1cncc(NCc2ccc3nccnc3c2)c1N1CCNCC1` [compound 019, 5-Chloro-4-(piperazin-1-yl)-N-(quinoxalin-6-ylmethyl)pyridin-3-amine]: 453.
Consider `c1cc(N2CC3CC2CN3)c(NCc2ccc3nccnc3c2)cn1` (stereo not drawn) [compound 030, 4-(2,5-diazabicyclo[2.2.1]heptan-2-yl)-N-(quinoxalin-6-ylmethyl)pyridin-3-amine], for which the fold induction at 25 µM was 82.9.
On to `c1cc(N2C3CNCC2C3)c(NCc2ccc3nccnc3c2)cn1` [compound 031, 4-(3,6-diazabicyclo[3.1.1]heptan-6-yl)-N-(quinoxalin-6-ylmethyl)pyridin-3-amine], for which the fold induction at 25 µM worked out at 17.9.
Same read-out and setting: the same measure for `c1cc(N2CC3CNCC3C2)c(NCc2ccc3nccnc3c2)cn1` (stereo not drawn) [compound 032, 4-(hexahydropyrrolo[3,4-c]pyrrol-2(1H)-yl)-N-(quinoxalin-6-ylmethyl)pyridin-3-amine]: 69.4; for `NC1CCN(c2ccncc2NCc2ccc3nccnc3c2)CC1` [compound 033, 4-(4-aminopiperidin-1-yl)-N-(quinoxalin-6-ylmethyl)pyridin-3-amine]: 7.8.
Same read-out and setting: the same measure for `c1cc(NC2CCNCC2)c(NCc2ccc3nccnc3c2)cn1` [compound 034, N^4-(piperidin-4-yl)-N^3-(quinoxalin-6-ylmethyl)pyridine-3,4-diamine]: 53.2; for `CN(c1ccncc1NCc1ccc2nccnc2c1)C1CCNC1` (stereo not drawn) [compound 035, N^4-methyl-N^4-(pyrrolidin-3-yl)-N^3-(quinoxalin-6-ylmethyl)pyridine-3,4-diamine]: 86.4; for `FC(F)(F)C1CN(c2ccncc2NCc2ccc3nccnc3c2)CCN1` (stereo not drawn) [compound 036, N-(quinoxalin-6-ylmethyl)-4-(3-(trifluoromethyl)piperazin-1-yl)pyridin-3-amine]: 8.2.
On the same count and under the same terms, the same measure for `FC(F)(F)C1CNCCN1c1ccncc1NCc1ccc2nccnc2c1` (stereo not drawn) [compound 037, N-(quinoxalin-6-ylmethyl)-4-(2-(trifluoromethyl)piperazin-1-yl)pyridin-3-amine]: 6.1; for `O=C1CN(c2ccncc2NCc2ccc3nccnc3c2)CCN1` [compound 038, 4-(3-((quinoxalin-6-ylmethyl)amino)pyridin-4-yl)piperazin-2-one]: 2.9; for `c1cc(N2CCOCC2)c(NCc2ccc3nccnc3c2)cn1` [compound 039, 4-morpholino-N-(quinoxalin-6-ylmethyl)pyridin-3-amine]: 6.
Regarding `c1cc(NCc2ccc3nccnc3c2)c(N2CCNCC2)cn1` [compound 040, 3-(piperazin-1-yl)-N-(quinoxalin-6-ylmethyl)pyridin-4-amine], the fold induction at 25 µM came out at 69.
